Active and inactive are the calls of the source.
Key:
Orexin receptor type 2 [1] = target: T1, Orexin receptor type 2 (Homo sapiens, UniProt O43614); assay: Counterscreen assay for antagonists of the orexin 1 receptor (OX1R; HCRTR1): Fluorescence-based cell-based dose response assay for antagonists of the orexin 2 receptor (OX2R; HCRTR2), run by assay provider.; type: functional
T1 sequence (O43614 whole entry): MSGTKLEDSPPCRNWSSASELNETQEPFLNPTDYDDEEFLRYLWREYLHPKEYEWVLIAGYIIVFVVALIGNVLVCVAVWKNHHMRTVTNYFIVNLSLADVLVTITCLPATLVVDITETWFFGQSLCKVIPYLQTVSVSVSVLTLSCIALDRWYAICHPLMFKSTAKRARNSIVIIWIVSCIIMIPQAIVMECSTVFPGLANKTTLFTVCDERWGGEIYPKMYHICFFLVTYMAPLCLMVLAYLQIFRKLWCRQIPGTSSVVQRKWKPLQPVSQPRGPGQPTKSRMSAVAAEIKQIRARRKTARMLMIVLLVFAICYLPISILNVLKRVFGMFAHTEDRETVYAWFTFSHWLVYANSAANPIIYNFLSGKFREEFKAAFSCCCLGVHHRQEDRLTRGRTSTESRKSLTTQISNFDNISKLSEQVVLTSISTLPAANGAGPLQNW

CHO-K1 = assay: (§1) Counterscreen for antagonists of the orexin 1 receptor (OX1R; HCRTR1): Homogeneous time resolved fluorescence (HTRF)-based cell-based dose response assay to identify antagonists of the parental CHO-K1 cell line. [Related pubchem assays (depositor defined):AID434989, AID435008, AID463079, AID485270, AID492963, AID492964, AID492965, AID493232, AID504699, AID504701]; type: functional; conditions: Cricetulus griseus
[2] = HepG2 cell cytotoxicity, dose response, cytotoxicity control for Shn3 inhibitor project, CellTiter-Glo, cherry-picked (AID 624134); type: functional, cell-based
INS1 = assay: beta cell apoptosis inhibitors, cytokine rescue, dose response, luminescence, retest (AID 449756); type: functional, cell-based; conditions: Rattus norvegicus;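 further: cell death triggered by IL-1 beta plus TNF-alpha plus IFN-gamma mixture; protective hits raise ATP signal compared with cytokine alone wells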
[3] = Shn3 3'UTR reporter inhibitors, dose response, cell-based, Clone20 osteoblasts, firefly luciferase, cherry-picked (AID 624132); type: functional;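 further: firefly luciferase luminescence from reporter carrying the Shn3 3'UTR in osteoblasts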
[4] = target: T2, Orexin/Hypocretin receptor type 1 (Homo sapiens, UniProt O43613); assay: (§2) Fluorescence-based cell-based high throughput dose response assay for antagonists of the orexin 1 receptor (OX1R; HCRTR1). [Related pubchem assays (depositor defined):AID434989, AID435008, AID463079, AID485270, AID492963, AID492964, AID492965, AID493232, AID504717, AID504718]; type: functional
T2 sequence (O43613 whole entry): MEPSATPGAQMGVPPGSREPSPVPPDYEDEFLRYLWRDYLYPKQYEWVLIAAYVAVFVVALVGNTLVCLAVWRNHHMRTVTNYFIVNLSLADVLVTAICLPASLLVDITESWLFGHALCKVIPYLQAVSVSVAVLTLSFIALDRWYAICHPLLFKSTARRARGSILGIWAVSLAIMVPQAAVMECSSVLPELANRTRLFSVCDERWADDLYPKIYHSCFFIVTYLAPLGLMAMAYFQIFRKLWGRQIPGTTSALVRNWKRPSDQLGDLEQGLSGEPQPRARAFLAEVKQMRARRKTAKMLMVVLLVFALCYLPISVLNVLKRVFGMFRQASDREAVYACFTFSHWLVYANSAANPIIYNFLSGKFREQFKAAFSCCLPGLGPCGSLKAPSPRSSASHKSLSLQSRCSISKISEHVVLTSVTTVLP

[5] = as §1, with “Fluorescence-based” for “Homogeneous time resolved fluorescence (HTRF)-based”, “cell-based high throughput” for “cell-based”, “CHO” for “CHO-K1”; type: functional
Jurkat = assay: antigen receptor-induced NF-kB inhibitors, dose response, Jurkat, luciferase reporter, luminescence, B- and T-cell (AID 489004); type: functional, cell-based; conditions: Homo sapiens;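 further: NF-kB luciferase reporter Jurkat cells stimulated with PMA plus ionomycin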
[6] = target: T3, Microphthalmia-associated transcription factor (Homo sapiens, UniProt O75030); assay: TRPM1 promoter luciferase signal decrease, dose response, MITF inhibitor project, cell-based, SK-MEL-5, cherry-picked, set 3 (AID 493073); type: functional
T3 sequence (O75030 whole entry): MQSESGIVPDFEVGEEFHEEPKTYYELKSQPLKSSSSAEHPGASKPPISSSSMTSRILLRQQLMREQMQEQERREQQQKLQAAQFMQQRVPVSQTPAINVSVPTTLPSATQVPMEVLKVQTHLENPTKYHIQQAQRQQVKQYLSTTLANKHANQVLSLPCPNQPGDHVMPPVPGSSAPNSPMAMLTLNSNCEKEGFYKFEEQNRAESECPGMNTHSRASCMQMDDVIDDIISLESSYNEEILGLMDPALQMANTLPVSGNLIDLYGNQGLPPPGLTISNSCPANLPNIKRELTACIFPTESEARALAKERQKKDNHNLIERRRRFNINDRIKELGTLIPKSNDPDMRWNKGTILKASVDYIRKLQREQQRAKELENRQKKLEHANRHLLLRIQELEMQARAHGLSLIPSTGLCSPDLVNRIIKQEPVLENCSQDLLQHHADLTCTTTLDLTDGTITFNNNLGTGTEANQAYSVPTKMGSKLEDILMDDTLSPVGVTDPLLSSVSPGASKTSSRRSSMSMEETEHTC

[7] = control 3'UTR Renilla luciferase suppression, dose response, counter-screen for Shn3 inhibitor project, cell-based, Clone20-Shn3RL, cherry-picked (AID 624133); type: functional
[8] = cytotoxicity in HEK-293T NF-kB-Luc cells, dose response, cytotoxicity control for B/T-cell NF-kB inhibitor project, cell-based, uHTS hits (AID 489019); type: functional;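 further: IC50 reflects cytotoxicity as loss of cell viability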
[9] = target: Sphingosine 1-phosphate receptor 2 (Homo sapiens, UniProt O95136); assay: Dose Response Cell Based Assay for Antagonists of the S1P2 Receptor. [Related pubchem assays: 856, 736 ]; type: functional
Sequence of Sphingosine 1-phosphate receptor 2 (O95136 whole entry): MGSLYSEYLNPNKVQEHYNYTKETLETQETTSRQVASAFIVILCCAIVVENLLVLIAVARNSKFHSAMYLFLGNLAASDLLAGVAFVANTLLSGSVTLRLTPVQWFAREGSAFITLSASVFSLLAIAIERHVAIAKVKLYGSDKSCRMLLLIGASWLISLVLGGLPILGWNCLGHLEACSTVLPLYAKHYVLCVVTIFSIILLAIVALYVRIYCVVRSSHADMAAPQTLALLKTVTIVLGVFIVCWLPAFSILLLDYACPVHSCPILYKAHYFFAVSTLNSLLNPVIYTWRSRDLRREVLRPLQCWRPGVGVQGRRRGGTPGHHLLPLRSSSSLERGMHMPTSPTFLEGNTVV

[10] = target: T2, Orexin/Hypocretin receptor type 1; assay: as §2, with “Homogeneous Time Resolved Fluorescence (HTRF)-based” for “Fluorescence-based”; type: functional
Orexin receptor type 2 [11] = target: T1, Orexin receptor type 2; assay: Counterscreen assay for antagonists of the orexin 1 receptor (OX1R; HCRTR1): Homogeneous Time Resolved Fluorescence (HTRF)-based cell-based dose response assay for antagonists of the orexin 2 receptor (OX2R; HCRTR2), run by assay provider.; type: functional
Fatty acid synthase = Fatty acid synthase (Homo sapiens, UniProt P49327); assay: FAS thioesterase domain inhibitors, dose response, biochemical, kinetic fluorescence intensity (AID 624326); type: functional;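 further: rate of fluorescence rise from hydrolysis of a fluorogenic O-methyl fluorescein ester substrate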
Sequence of Fatty acid synthase (P49327 whole entry, the tested form may be a part): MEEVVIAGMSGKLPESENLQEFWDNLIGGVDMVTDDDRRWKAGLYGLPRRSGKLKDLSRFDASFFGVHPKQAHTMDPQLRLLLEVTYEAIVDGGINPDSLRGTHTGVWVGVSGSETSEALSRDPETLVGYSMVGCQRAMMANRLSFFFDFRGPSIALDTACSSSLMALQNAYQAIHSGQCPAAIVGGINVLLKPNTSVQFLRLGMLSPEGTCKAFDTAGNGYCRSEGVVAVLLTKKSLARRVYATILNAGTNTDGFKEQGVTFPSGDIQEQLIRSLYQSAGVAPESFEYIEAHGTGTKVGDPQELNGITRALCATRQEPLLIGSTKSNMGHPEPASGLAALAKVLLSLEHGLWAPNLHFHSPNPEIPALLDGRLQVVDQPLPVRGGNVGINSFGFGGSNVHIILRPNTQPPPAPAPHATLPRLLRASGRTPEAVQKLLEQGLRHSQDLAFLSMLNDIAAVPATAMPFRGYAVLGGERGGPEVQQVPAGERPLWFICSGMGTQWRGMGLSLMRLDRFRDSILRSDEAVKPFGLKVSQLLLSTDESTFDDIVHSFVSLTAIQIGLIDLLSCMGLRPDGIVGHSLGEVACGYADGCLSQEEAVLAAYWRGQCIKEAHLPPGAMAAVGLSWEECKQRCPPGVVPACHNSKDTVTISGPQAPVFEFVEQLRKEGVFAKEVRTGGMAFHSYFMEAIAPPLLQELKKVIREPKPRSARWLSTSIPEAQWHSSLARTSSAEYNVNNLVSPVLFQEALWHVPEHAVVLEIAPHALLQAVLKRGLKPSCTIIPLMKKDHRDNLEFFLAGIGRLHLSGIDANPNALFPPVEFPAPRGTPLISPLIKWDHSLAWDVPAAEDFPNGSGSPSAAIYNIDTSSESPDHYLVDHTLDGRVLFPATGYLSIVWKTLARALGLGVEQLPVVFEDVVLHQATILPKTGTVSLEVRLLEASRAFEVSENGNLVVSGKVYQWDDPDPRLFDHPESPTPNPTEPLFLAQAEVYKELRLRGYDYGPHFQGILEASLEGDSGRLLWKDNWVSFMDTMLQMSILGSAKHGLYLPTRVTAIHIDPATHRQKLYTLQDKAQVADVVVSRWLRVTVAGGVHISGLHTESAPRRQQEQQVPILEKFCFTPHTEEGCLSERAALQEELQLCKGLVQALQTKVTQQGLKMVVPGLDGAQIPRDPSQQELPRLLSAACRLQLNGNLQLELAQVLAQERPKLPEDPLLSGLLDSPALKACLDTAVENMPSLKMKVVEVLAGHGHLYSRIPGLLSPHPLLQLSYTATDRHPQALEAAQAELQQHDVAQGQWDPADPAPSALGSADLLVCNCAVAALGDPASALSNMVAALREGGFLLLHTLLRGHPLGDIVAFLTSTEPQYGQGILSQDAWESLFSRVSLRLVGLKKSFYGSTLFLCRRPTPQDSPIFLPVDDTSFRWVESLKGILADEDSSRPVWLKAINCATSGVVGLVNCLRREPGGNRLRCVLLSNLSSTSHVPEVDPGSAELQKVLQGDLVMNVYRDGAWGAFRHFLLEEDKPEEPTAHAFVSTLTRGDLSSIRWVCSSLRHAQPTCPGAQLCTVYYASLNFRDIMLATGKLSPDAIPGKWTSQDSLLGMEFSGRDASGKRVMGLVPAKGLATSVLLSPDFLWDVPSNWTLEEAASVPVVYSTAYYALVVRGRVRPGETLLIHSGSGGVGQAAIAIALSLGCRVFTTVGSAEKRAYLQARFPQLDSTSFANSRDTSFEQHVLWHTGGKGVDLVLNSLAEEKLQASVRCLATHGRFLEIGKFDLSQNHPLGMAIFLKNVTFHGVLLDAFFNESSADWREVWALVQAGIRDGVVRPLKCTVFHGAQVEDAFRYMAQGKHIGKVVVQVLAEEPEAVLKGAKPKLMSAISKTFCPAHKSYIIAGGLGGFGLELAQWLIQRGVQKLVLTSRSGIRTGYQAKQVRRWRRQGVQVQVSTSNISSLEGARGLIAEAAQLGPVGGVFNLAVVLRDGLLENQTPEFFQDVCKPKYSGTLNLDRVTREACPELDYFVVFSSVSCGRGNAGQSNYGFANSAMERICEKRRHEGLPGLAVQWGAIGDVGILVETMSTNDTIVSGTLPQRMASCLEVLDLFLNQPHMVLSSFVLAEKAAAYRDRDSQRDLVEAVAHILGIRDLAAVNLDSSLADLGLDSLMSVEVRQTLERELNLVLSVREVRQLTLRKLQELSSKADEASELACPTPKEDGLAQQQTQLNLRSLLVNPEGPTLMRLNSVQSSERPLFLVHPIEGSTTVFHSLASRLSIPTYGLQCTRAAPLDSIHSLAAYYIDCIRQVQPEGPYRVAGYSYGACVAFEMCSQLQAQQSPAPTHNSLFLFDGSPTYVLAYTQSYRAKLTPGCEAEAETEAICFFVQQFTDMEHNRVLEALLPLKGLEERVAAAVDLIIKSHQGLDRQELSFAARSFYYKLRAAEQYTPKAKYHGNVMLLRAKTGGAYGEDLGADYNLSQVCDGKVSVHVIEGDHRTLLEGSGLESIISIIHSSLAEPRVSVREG

[12] = target: Nucleotide-binding oligomerization domain-containing protein 2 (Homo sapiens, UniProt Q9HC29); assay: NOD2 signaling inhibitors, analog potency, SAR follow-up, cell-based, set 3 (AID 2799); type: functional
Sequence of Nucleotide-binding oligomerization domain-containing protein 2 (Q9HC29 whole entry, the tested form may be a part): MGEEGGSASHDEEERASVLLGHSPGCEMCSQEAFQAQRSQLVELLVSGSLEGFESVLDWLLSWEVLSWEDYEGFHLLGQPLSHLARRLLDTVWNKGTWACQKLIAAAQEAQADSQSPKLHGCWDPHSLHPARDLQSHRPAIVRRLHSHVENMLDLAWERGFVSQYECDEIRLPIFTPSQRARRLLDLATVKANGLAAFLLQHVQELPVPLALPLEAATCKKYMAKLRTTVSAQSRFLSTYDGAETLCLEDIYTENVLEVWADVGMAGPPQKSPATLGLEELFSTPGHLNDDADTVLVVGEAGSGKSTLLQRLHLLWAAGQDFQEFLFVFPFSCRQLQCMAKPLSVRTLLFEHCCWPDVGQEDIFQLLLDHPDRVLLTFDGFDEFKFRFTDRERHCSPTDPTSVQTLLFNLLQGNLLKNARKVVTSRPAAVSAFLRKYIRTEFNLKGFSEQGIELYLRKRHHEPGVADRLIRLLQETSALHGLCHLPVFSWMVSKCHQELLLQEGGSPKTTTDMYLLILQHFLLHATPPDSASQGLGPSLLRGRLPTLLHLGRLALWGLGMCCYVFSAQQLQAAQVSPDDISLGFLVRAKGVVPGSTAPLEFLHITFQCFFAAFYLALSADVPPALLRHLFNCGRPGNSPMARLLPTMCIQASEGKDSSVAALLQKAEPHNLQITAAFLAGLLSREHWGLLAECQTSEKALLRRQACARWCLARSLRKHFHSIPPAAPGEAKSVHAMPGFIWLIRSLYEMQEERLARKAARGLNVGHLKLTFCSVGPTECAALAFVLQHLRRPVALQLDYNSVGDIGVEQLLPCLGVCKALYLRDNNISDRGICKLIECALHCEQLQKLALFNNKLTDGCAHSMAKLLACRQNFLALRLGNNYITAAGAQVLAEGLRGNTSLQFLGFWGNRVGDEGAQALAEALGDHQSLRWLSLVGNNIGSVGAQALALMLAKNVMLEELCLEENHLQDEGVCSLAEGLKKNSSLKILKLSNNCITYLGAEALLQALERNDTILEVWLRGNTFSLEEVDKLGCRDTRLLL

HEK293 [13] = assay: SAR analysis of compounds that are cytotoxic to HEK293 - Set 3. [Related pubchem assays (depositor defined):AID1575, AID1578, AID1848, AID1849, AID2001, AID2333, AID2334, AID2335, AID2337, AID2469]; type: functional, cell-based; conditions: Homo sapiens
[14] = target: T4, Nucleotide-binding oligomerization domain-containing protein 1 (Homo sapiens, UniProt Q9Y239); assay: SAR analysis of compounds that inhibit NOD1 - Set 3. [Related pubchem assays (depositor defined):AID1566, AID1575, AID1578, AID1849, AID1852, AID2333, AID2335, AID2466]; type: functional
T4 sequence (Q9Y239 whole entry): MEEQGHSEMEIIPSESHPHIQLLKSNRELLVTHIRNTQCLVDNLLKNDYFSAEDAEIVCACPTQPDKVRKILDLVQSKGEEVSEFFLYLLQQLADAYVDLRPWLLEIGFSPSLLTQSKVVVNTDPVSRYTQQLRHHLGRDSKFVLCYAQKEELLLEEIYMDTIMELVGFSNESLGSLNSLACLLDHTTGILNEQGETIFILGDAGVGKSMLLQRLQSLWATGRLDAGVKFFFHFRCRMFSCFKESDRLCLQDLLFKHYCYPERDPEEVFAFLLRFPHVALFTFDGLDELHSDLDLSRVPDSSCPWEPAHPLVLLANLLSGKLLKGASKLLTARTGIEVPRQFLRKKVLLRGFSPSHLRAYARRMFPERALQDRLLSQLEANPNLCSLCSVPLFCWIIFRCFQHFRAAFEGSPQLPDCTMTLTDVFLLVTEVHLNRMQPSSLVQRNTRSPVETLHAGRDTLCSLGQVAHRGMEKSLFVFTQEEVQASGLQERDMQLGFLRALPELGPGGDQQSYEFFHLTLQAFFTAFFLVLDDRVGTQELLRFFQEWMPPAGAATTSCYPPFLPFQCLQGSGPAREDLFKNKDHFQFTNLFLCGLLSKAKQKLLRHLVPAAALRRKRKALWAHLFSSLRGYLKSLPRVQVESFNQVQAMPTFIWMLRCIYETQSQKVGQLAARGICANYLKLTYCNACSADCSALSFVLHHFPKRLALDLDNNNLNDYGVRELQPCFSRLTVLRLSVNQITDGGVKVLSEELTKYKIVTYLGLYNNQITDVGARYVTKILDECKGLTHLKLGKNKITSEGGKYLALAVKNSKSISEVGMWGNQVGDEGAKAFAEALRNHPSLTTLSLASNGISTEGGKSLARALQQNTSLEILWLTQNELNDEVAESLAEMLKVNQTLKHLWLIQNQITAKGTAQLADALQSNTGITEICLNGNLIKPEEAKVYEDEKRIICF

Tumor necrosis factor [15] = target: T5, Tumor necrosis factor (Homo sapiens, UniProt P01375); assay: TNFa-triggered NF-kB activation inhibitors, SAR follow-up, cell-based, set 3 (AID 2801); type: functional
T5 sequence (P01375 whole entry): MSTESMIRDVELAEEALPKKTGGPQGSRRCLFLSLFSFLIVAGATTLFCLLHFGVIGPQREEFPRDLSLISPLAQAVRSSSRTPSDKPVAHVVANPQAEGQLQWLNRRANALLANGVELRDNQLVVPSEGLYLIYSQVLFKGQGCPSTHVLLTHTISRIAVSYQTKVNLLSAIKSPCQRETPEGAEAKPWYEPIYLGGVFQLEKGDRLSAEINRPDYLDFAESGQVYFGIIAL

HEK293 [16] = assay: cells; conditions: Homo sapiens
[17] = target: T4, Nucleotide-binding oligomerization domain-containing protein 1; assay: NOD1 signaling inhibitors, SAR follow-up, revised (AID 2333); type: functional
Tumor necrosis factor [18] = target: T5, Tumor necrosis factor; assay: TNFa-triggered NF-kB activation inhibitors, SAR follow-up, cell-based, revised (AID 2337); type: functional

Structure (SMILES): COc1ccccc1C(=O)Nc1nc(-c2ccc(S(=O)(=O)N3CCOCC3)cc2)cs1
- IC50 (Orexin receptor type 2 [1]): 8.4 µM (active)
- IC50 (CHO-K1): > 66.2 µM (inactive)
- AC50 [2]: 51.8 µM (active)
- AC50 (INS1): 3.17 µM (active)
- AC50 [3]: 1.21 µM (active)
- IC50 [4]: 17.5 µM (inactive)
- IC50 [5]: > 16.6 µM (inactive)
- IC50 (Jurkat): 7.79 µM (active)
- AC50 [6]: 4.34 µM (active)
- AC50 [7]: 2.34 µM (active)
- IC50 [8]: > 80 µM (inactive)
- IC50 [9]: 3.81 µM (active)
- IC50 [10]: 3.59 µM (active)
- IC50 (Orexin receptor type 2 [11]): 5.93 µM (active)
- IC50 (Fatty acid synthase): 10.9 µM (active)

Structure (SMILES): Nc1cc(-c2ccccc2)nn1S(=O)(=O)c1ccc(F)c(Cl)c1
- IC50 [12]: > 20 µM (inactive)
- IC50 (HEK293 [13]): > 20 µM (inactive)
- IC50 [14]: > 20 µM (inactive)
- IC50 (Tumor necrosis factor [15]): > 20 µM (inactive)

Structure (SMILES): COc1ccc(NC(=O)c2ccc(CN3CCc4ccccc4C3)cc2)cc1
- IC50 (HEK293 [16]): > 20 µM (inactive)
- IC50 [17]: 0.513 µM (active)
- IC50 (Tumor necrosis factor [18]): 0.65 µM (active)

Structure (SMILES): COC(=O)CC1=NN(c2ccccc2)C(=O)/C1=C/Nc1ccc(C)cc1
- IC50 (HEK293 [16]): > 20 µM (inactive)
- IC50 [17]: > 20 µM (inactive)
- IC50 (Tumor necrosis factor [18]): > 20 µM (inactive)
